Laboratory results published in patent US8653048B2 (Sanlugen Pharmatech Ltd., priority 2009, dated 2014).

Experiments:
[1] = Pharmacokinetics of SL-01 and SL-02 in mice, intragastric; type: in vivo; settings: both sexes, Kunming, mouse, plasma, po, SL-01 100 mg/kg intragastric
Description: Kunming strain white mice (25+1 g, provided by Experimental Animal Center of Shandong University, half of which were male, half were female).
125 mg of SL-01 or SL-02 were weighed accurately and added into 10 mL volumetric flask. Water (containing 0.1% Tween-80) was added to the mark and mixed uniformly to get the suspensions of SL-01 or SL-02.
100 healthy Kunming mice were taken and divided into two groups randomly. The first group was given SL-01 and the second group was given SL-02. Five mice were settled parallel at each time point. SL-01 and SL-02 were administrated intragastricly with a dosage at 100 mg/kg (equivalent to 0.2 mL per mouse). The mice were fasted but allowed to drink for a 12 h period before administration. Blood samples were drawn from eyebase veniplex at 5 min, 15 min, 30 min, 45 min, 1 h, 2 h, 4 h, 6 h, 8 h, 12 h, 24 h, 48 h after the administration and put into heparin sodium treated centrifuge tubes containing 2.5 μL tetrahydrouridine solution (THU, 10 mg/ml) and centrifuged for 15 min at 4000 r/min. Isopropanol (1 mL) was added into the solution and vortexed for 30 s and kept still for 5 min. 2.5 ml of EtOAc was added and votexed and centrifuged at 4000 rpm for 15 minutes. The supernatant was taken and dried by blowing in nitrogen. The dried sample was redissolved in 200 μL HPLC mobile phase solution. 20 μL sample was loaded to the HPLC. The chromatography and peak area was recorded. The plasma concentrations of SL-01 and SL-02 was calculated. The average concentration of SL-01 and SL-02 was plotted with the time.

[2] = In vitro stability in simulated intestinal fluid (HPLC); type: physicochemical; settings: for stability in simulated intestinal fluid (in words): 0-24 h; for HPLC peak area of drug / Degrade %: simulated intestinal fluid
[3] = test system: Bel7402: a human liver cancer cell line; assay: MTT analytical method, Bel7402 cells; type: cell-based; settings: Bel-7402, 72 h
Text: (§1) MTT analytical method was used to test the prodrugs for various tumor cells.
(§2) • 1) Cell lines: NCI-H460, A549, LOVO, HT-29, MDA-MB-231, SGC7901, HepG2 or BEL-7402 cell lines. Culture: adherent culturing in D-MEM (Hyclone, Inc.) containing 10% fetal calf serum. The initial cell concentration was about 3×10^5 /mL. The cell was passaged by 1:3 dilution in every 2-3 days. On the day before the test, the cell was passaged by 1:2 dilution, the cell concentration for the test was 5-10×10^5 /mL. • 2) Dissolution and dilution of compounds: according to the weight and molecular weight of the drugs provided, 100-200 μL of DMSO was added. Then normal saline was added to make the final diluted concentration of the drugs be 5 mM (Note that the final concentration of DMSO should not be more than 10%). • 3) D-MEM or RPMI 1640 cell culture medium, Gibco, Inc. • 4) Fetal calf serum Hyclone, Inc. • 5) Cell dissociation buffer, 0.25% Trypsin+0.02% EDTA. • 6) MTT solution, MTT Powder (Sigma) were dissolved in PBS buffer solution to make a solution of 5 mg/mL. The solution was filtered by a 0.22 μm micropore membrane and stored at −20° C. • 7) PBS buffer solution. • 8) 10% acidified SDS, 0.01N HCl. • 9) Centrifuge tubes, haustorial tubes etc. (BD, Inc.); 96-well plates (Costatr, Inc.) Procedures: • 1) Cell inoculation: Cells grown for 24 hours after passage, which cells were in good growth state, were used. The cells were harvested by the routine method. The cell concentration was adjust with a fresh culture solution to 2×10^5/mL (for adherent cells)-3×10^5/mL (for suspension cells). The adherent cells were inoculated at 100 μL/well and then cultivated in an incubator with 5% CO2 at 37° C. for 24 h. Thereafter the used culture solution was removed and 95 μL/well of fresh culture solution was added. The suspension cells were inoculated at 95 μL/well directly. • 2) Drugs treatment: 9 concentration grades were designed for every drug, and every concentration had 3 wells. The control group had 5 wells. The control group was tested simultaneously in each test. The final concentrations of a drug added were […], and 5 μL normal saline was added to the control group. • 3) Cell culture and detection: the cells were cultured in an incubator with 5% CO2 at 37° C. for 72 h after the drug was added, then 10 μL MTT was added to each well and the culture was continued for 4 h. 100 μL of 10% SDS (containing 0.01N HCl) was added to each well. After 24 h, the absorbance (A) of each well was determined by Bio-rad 680 ELISA with the detection wavelength of 570 nm and the reference wavelength of 630 nm. Calculation:
(§3) First, the absorbance (A) of each well was averaged (removing any data with big difference). […] A0 was the mean absorbance of the control wells. The effect curve of the drug concentration was drawn using EXCEL software and the drug concentration for 50% cell survival was calculated according to an appropriate computing methods.

[4] = test system: HepG2: a human liver cancer cell line; assay: MTT analytical method, HepG2 cells; type: cell-based; settings: 72 h
Text: as §1, §2, §3

Row | SMILES | stability in simulated intestinal fluid (in words) [2] | HPLC peak area of drug ([2]; 0 min) | HPLC peak area of drug ([2]; 1 h) | HPLC peak area of drug ([2]; 2 h) | HPLC peak area of drug ([2]; 4 h) | HPLC peak area of drug ([2]; 6 h) | HPLC peak area of drug ([2]; 8 h) | HPLC peak area of drug ([2]; 12 h) | HPLC peak area of drug ([2]; 24 h) | IC50 [3] | IC50 [4] | also measured
1 | CCCCCCCCCCCCOC(=O)c1nccnc1C(=O)Nc1ccn([C@@H]2O[C@H](CO)[C@@H](O)C2(F)F)c(=O)n1 [Compound 4, Dodecyl-3-((1-((2R,4R,5R)-3,3-difluoro-4-hydroxy-5-(hydroxymethyl)-tetrahydrofuran-2-yl)-2-oxo-1,2-dihydropyrimidin-4-yl)carbamoyl)pyrazine-2-carboxylate] | stable | 288987.906 | 231129.797 | 196319.828 | 245622.906 | 247957.219 | 239958.297 | 247782.500 | 256782.600 | 8 µM | 6 µM | AUC(0-t) ([1]; analyte SL-01, read-out: AUC0-t, SL-01 Administration Group): 1810 ng·h/mL; Cmax ([1]; analyte SL-01, read-out: Cmax, SL-01 Administration Group): 4370 ng/mL; MRT last ([1]; analyte SL-01, read-out: MRT0-t, SL-01 Administration Group): 21.6 min; half-life ([1]; analyte SL-01, read-out: T1/2, SL-01 Administration Group (converted)): 31.1 min; Tmax ([1]; analyte SL-01, read-out: Tmax, SL-01 Administration Group): 15 min
2 | Nc1ccn([C@@H]2O[C@H](CO)[C@@H](O)C2(F)F)c(=O)n1 [Gemcitabine, gemcitabine, reference compound] | degraded | 643704.938 | 465528.594 | 410685.313 | 257604.125 | 197106.406 | 149816.906 | 9873.897 | 5571.352 | 4 µM | < 1 µM | Degrade % ([2]; 0 min): 0%; Degrade % ([2]; 1 h): 27.67%; Degrade % ([2]; 2 h): 36.2%; Degrade % ([2]; 4 h): 59.98%; Degrade % ([2]; 6 h): 69.37%; Degrade % ([2]; 8 h): 76.72%; Degrade % ([2]; 12 h): 98.46%; Degrade % ([2]; 24 h): 99.13%
